# In PMC10970734, “Identification of an Intravenous Injectable NK1 Receptor Antagonist for Use in Traumatic Brain Injury” (International Journal of Molecular Sciences, 2024):
# pKi: −log10 of the molar value.
# Tests used:
# [1] = test system: rodent model of TBI; assay: Cerebral oedema after TBI, wet weight-dry weight method; assay type: in vivo, Sprague Dawley rats; details: rat TBI, 10 mg/kg 30 min post-injury, tissues 6 h post-injury
# Method: The BBB dysfunction that follows acute CNS injuries can contribute to significant complications, such as cerebral oedema and raised intracranial pressure (ICP). The development of cerebral oedema was assessed using the wet weight–dry weight method, with tissues collected 6 h post-injury.
# Injury was induced in halothane-anesthetized (ProVet) male Sprague Dawley rats (400 ± 20 g) using acceleration-induced impact TBI [29, 93]. This model involves impacting a 10 mm diameter, 3 mm thick stainless steel disc fixed centrally to the exposed skull between the lambda and bregma with an accelerating impactor. The impactor was a 450 g brass weight dropped from a height of 2 m. Earlier studies have shown that the impact acceleration injury produces diffuse axonal injury, oedema, BBB opening, Mg^2+ decline, and moderate-to-severe neurologic deficits. All animals were fed and watered ad libitum before the induction of injury. During both surgery and the immediate recovery phase, rat rectal temperature was maintained using a thermostatically controlled heating pad. […] Blood pressure was monitored, both before and after injury, using a femoral arterial line. […]
# The amount of oedema development was calculated using the wet weight–dry weight method. […] Edema in each brain sample was calculated using the wet–dry method formula:%Water = (Wet Weight − Dry Weight)/Wet Weight × 100
# [2] = biological target: T1, Adenosine A3 (Homo sapiens, UniProt P0DMS8); assay: Cerep selectivity profiling, receptor antagonism; assay type: biochemical
# T1 sequence (P0DMS8 1-318): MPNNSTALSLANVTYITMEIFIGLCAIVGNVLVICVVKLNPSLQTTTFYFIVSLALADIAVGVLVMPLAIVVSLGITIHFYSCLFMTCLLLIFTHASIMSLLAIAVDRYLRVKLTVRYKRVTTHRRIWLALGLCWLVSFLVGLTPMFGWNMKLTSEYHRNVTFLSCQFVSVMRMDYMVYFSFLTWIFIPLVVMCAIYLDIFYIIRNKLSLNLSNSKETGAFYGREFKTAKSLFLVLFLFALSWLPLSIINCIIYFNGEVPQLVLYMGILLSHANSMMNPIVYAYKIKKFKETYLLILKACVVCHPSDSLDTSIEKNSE
# Method: The pharmacological specificity of EUC-001 was assessed using the commercially available selectivity profiling services provided by Cerep (Celle l’Evescault, France). Initially, the activity of EUC-001, at a fixed concentration of 10 μM, was evaluated in a range of assays to assess pharmacological selectivity relative to other cell-surface receptors, ion channels and transport proteins. Where any significant binding was detected, further assays were performed to quantify potential non-selective activity. […] In terms of this non-specific activity, the IC50s are approximately 3.6 log units greater than that required for NK1R antagonism.
# The pharmacological specificity of EUC-001 was assessed using the commercially available selectivity profiling services provided by Cerep (Celle l’Evescault, France). For initial screens, the binding of EUC-001 (synthesized by Hoffmann-La Roche, Basel, Switzerland) at a fixed concentration of 10 μM was evaluated in a range of assays to assess pharmacological selectivity relative to other cell-surface receptors, ion channels and transport proteins.
# For agonist activity, results are expressed as a percentage of the control agonist response induced by the selective NK1R agonist [Sar^9, Met(O2)^11]-substance P (100 nM) for a range of concentrations of EUC-001. Antagonist activity is expressed as a percentage change in the response induced by 3 nM [Sar^9, Met(O2)^11]-SP (R&D systems) across a range of concentrations of EUC-001. The EC50 values (concentration producing a half-maximal specific response) and IC50 values (concentration causing a half-maximal inhibition of the control specific agonist response) were determined by non-linear regression analysis of the concentration–response curves generated with mean replicate values using Hill equation curve fitting (Y = D + [(A − D)/(1 + (C/C50)nH)], where Y = specific response, D = minimum specific response, A = maximum specific response, C = compound concentration, and C50 = EC50 or IC50, and nH = slope factor). This analysis was performed using custom software developed at Cerep and validated by comparison with data generated by the commercial software SigmaPlot® 4.0 for Windows® (SPSS Inc., Chicago, IL, USA). For the antagonists, the apparent dissociation constants (KB) were calculated using the modified Cheng Prusoff equation (KB = IC50/(1 + (A/EC50A)), where A = concentration of reference agonist in the assay, and EC50A = EC50 value of the reference agonist).
# [3] = biological target: NK1R (Homo sapiens, UniProt P25103); assay: Radioligand binding, competition for [3H]SP, CHO cells transfected with human NK1R; parameters: expressed in transfected cells; host or cells: CHO cells (ATCC); details: competition for [3H]SP binding (0.6 nM)
# Chain of NK1R (P25103 whole entry): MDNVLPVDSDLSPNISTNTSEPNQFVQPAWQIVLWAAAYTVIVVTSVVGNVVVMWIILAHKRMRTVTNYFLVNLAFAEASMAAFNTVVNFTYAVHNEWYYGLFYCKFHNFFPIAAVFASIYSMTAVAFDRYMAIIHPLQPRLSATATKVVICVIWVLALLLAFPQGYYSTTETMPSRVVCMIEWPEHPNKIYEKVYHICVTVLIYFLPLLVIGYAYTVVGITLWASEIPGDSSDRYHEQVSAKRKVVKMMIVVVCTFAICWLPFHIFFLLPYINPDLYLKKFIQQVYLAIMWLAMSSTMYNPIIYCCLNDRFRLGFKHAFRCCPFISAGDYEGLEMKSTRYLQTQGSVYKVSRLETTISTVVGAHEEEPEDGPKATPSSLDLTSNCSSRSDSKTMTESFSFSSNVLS
# Method: The affinity of EUC-001 for the human NK1R was assessed by radioligand binding assays using Chinese hamster ovary (CHO) cells transfected with the human NK1R. Radioligand binding studies, evaluating competition for [^3H]
# Radioligand binding assays were performed using CHO cells (ATCC, Middlesex, UK) transfected with the human NK1R (accession number NM_001058). Assays were performed in 50 mM HEPES buffer (pH 7.4; Sigma-Aldrich, St Louis, MO, USA) containing BSA (0.04%; Sigma-Aldrich, St Louis, MO, USA), leupeptin (8 μg/mL; Sigma-Aldrich, St Louis, MO, USA), MnCl2 (3 mM; Sigma-Aldrich, St Louis, MO, USA) and phosphoramidon (2 μM; Sigma-Aldrich, St Louis, MO, USA). In total, 250 μL of membrane suspension was incubated with 125 μL of unlabelled EUC-001 (synthesized by Hoffmann-La Roche, Basel, Switzerland) dissolved in assay buffer, and 125 μL of [^3H]SP (final concentration 0.6 nM; Amersham Biosciences, Amersham, UK). Displacement curves were determined with seven concentrations of EUC-001. Following incubation (60 min at room temperature), the mixture was rapidly filtered through pre-soaked Whatman GF/C filters (Sigma-Aldrich, St Louis, MO, USA) and washed with 2 × 2 mL HEPES buffer (Sigma-Aldrich, St Louis, MO, USA), and bound radioactivity was measured by scintillation counting (Beckman Coulter, Brea, CA, USA). Assays were performed in triplicate in 2 separate experiments.
smiles,measurement,setting,value
"Cc1ccccc1-c1cc(N2CCN(C)CC2)ncc1C(=O)N(C)Cc1cc(C(F)(F)F)cc(C(F)(F)F)c1 [EUC-001, N-(3,5-Bis-trifluoromethyl-benzyl)-N-methyl-6-(4-methyl-piperazine-1-yl)-4-o-tolyl-nicotinamide]",Brain tissue water content (cerebral oedema),[1],not significantly different from sham
same,IC50 (M),[2],Not calculable
same,pKi,[3],9.24
